Data on 2 compounds can be found in US20230056360A1, “BLOOD-BRAIN-BARRIER SYSTEMS” (priority 2020, published 2023).

The structures appear in SMILES notation. Entries after “also recorded” stand apart in the source; their conditions may differ.

The test system of the data set is iBMECs. Briefly: blood-to-brain permeability of fluorescent molecules across iBMEC monolayers on transwells, monoculture or brain region-specific NVUs. Particulars: iBMECs alone or co-cultured over primary rat neural cultures (cortex, striatum, hippocampus, cerebellum, spinal cord); one-way ANOVA, Tukey; result in words. The protocol: In order to obtain region-specific primary neural cultures, E18 rat embryos were extracted from a pregnant female. Embryos were dissected and several regions of the CNS were separated including cortex, striatum, hippocampus, cerebellum and spinal cord. The regions were enzymatically dissociated into single cells before seeded pre-coated MEA plates and petri dishes, in which they were cultured in Neurobasal medium (Sigma) for two weeks. In order to validate the various primary cell cultures, the cells were stained for the neuronal marker βIII-tubulin and the glial marker GFAP (FIG. 2).
iPSCs were differentiated into iBMECs as previously described. On Day 8 of differentiation, cells were enzymatically dissociated into single cell suspensions and seeded on precoated transwell inserts. 24 hours post seeding, iBMEC inserts were placed on top of primary neural cultures derived from the different CNS regions (FIG. 3) where they were cultured for three additional days.
Fluorescence was measured using a plate reader and calculated into concentrations using a calibration curve with known concentrations. Next, the inventors plotted the chart and extracted the slope for each transwell. Slopes from empty transwells were subtracted from the obtained value and the results were used to calculate the permeability, expressed as 10-5 cm/min.

Take `O=[N+]([O-])c1ccc(N[C@H]2C(O)O[C@H](CO)[C@@H](O)[C@@H]2O)c2nonc12` (stereo partly drawn) [2-NDBG, 2-[N-(7-nitrobenz-2-oxa-1,3-diazol-4-yl)amino]-2-deoxy-D-glucose]: the “differences in permeability between iBMEC monoculture and NVUs of different brain regions” value was “not different between the NVUs”.
For `O=C([O-])c1ccccc1-c1c2ccc(=O)cc-2oc2cc([O-])ccc12.[Na+].[Na+]` [sodium fluorescein] the value was “significantly more permeable in the monoculture compared to the NVUs of the cortex, cerebellum, striatum and hippocampus; also recorded: significance differences in permeability were also observed between spinal cord and other NVUs”.
